Test results taken from PubChem BioAssay (NCI).
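Assay format: 96-well plates, 48-hour exposure. TGI denotes the concentration required for complete inhibition of growth.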

Legend:
Assay in all cases: inhibition of tumour cell growth, NCI panel, 48 h
[1] = test system: BT-549 breast
[2] = test system: NCI/ADR-RES ovarian
[3] = test system: MCF7 breast
[4] = test system: EKVX NSCLC
[5] = test system: IGROV1 ovarian
[6] = test system: SR leukemia
[7] = test system: SK-MEL-5 melanoma
[8] = test system: DU-145 prostate
[9] = test system: OVCAR-5 ovarian
[10] = test system: U251 CNS
[11] = test system: NCI-H460 lung
[12] = test system: A549 NSCLC

Compound | TGI [1] | TGI [2] | TGI [3] | TGI [4] | TGI [5] | TGI [6] | TGI [7] | TGI [8] | TGI [9] | TGI [10] | TGI [11] | TGI [12]
CCN(CC)CCO/N=C1\CC[C@H]2[C@@H]3CCc4cc(OC)ccc4[C@H]3CC[C@]12C | 19 µM | 23.9 µM | 9.49 µM | 9.76 µM | 10.2 µM | 4.31 µM | 3.21 µM | 16.7 µM | 12.4 µM | 11.6 µM | 2.15 µM | 6.96 µM
CC1(C)OC2COC3([C@@H]4OC(C)(C)O[C@@H]4CO)OC(C)(C)OC3C2O1 (stereo partly specified) | > 100 µM | > 100 µM | > 100 µM | > 100 µM | > 100 µM | > 100 µM | > 100 µM | > 100 µM | > 100 µM | > 100 µM | > 100 µM | > 100 µM
O=C(O)CN(CC(=O)O)C(C(=O)O)c1ccccc1 (stereo unspecified) | > 100 µM | > 100 µM | > 100 µM | > 100 µM | > 100 µM | > 100 µM | > 100 µM | > 100 µM | > 100 µM | > 100 µM | > 100 µM | > 100 µM
